The source of these data is article PMC4263135, “A general strategy for developing cell-permeable photo-modulatable organic fluorescent probes for live-cell super-resolution imaging” (Nature Communications, 2014).

Where a SMILES comes first, the peptide text is derived from it. Side-chain parts run from the residue outwards. [ ]: non-standard residue; d: D form. The star is where a group is joined. FITC = O=C1OC2(c3ccc(O)cc3Oc3cc(O)ccc32)c2ccc(NC(=S)*)cc21; Ahx = NCCCCCC(=O)O A value given as a limit tells only on which side of the number the result lay.

One data set relates to F-actin. The note with it: cited from earlier work. The source says:
The non-fluorescent PA-RhB fluorophore has been reported to be switched on by ultraviolet light, to be thermally reverted to a dark state, and to be excited by 560-nm laser light, emitting optimally at 600 nm in fixed cells. However, it is unknown whether the live-cell environment changes the properties of PA-RhB and whether the PA-RhB fluorophore can be used for live-cell super-resolution imaging.

For the next data set, the system named is live BSC-1 cells. Put plainly: Intracellular distribution of probes by confocal microscopy (Trypan blue quench). It is filed as cell-based, African green monkey (Cercopithecus aethiops). Conditions: 37 °C. As to the method: For F-actin imaging, BSC-1 cells were seeded into cell culture dishes at a density of 1.5 × 10^4 per well in growth medium (MEM supplemented with 10% FBS, 200 μl). After an overnight incubation, the cells were washed with phosphate-buffered saline (PBS, pH 7.4) for three times. A solution of the indicated probe (15 μM, 200 μl) in PBS was then added, and the cells were incubated in a 5% CO2 atmosphere at 37 °C for the indicated (5, 10, 15 and 30 min) times as mentioned in the main text. The supernatant was then discarded, and a solution of Trypan blue (200 μl, 1 mg ml^−1) in PBS was added to quench the extracellular fluorescence of the probes that were bound to either the cell membrane or the dish surface. After 2 min, Trypan blue was removed, the cells were washed gently twice with PBS and immersed in growth medium prior to optical imaging.
The fluorescence signals were detected using a Fluoview FV1000 confocal laser scanning microscope (Olympus) equipped with a × 60/1.42 numerical aperture oil-immersion objective lens (FITC channel: excitation (EX) 488 nm, emission (EM) 510–530 nm; GFP channel: EX 488 nm, EM 508–532 nm; tdEosFP channel: EX 488 nm, EM 500–522 nm; RhB channel: EX 543 nm, EM 580–630 nm; FAM channel: EX 488 nm, EM 505–540 nm and LysoTracker Red channel: excitation (EX) 543 nm, emission (EM) 560–580 nm). All fluorescence images were analyzed with Image J software.

With MGVADLIKKFESISKEE [Lifeact], the “affinity for F-actin in live cells” value in the data set with F-actin was “low affinity”.
Consider `CC[C@H](C)[C@H](NC(=O)[C@H](CC(C)C)NC(=O)[C@H](CC(=O)O)NC(=O)[C@H](C)NC(=O)[C@@H](NC(=O)CNC(=O)[C@@H](N)CCSC)C(C)C)C(=O)N[C@@H](CCCCN)C(=O)N[C@@H](CCCCN)C(=O)N[C@@H](Cc1ccccc1)C(=O)N[C@@H](CCC(=O)O)C(=O)N[C@@H](CO)C(=O)N[C@H](C(=O)N[C@@H](CO)C(=O)N[C@@H](CCCCN)C(=O)N[C@@H](CCC(=O)O)C(=O)N[C@@H](CCC(=O)O)C(=O)NCC(=O)NCC(=O)NCC(=O)NCC(=O)N[C@@H](CCCCNC(=O)CCCCCNC(=S)Nc1ccc2c(c1)C(=O)OC21c2ccc(O)cc2Oc2cc(O)ccc21)C(=O)NCC(=O)NCC(=O)N[C@H](CCCNC(=N)N)C(=O)N[C@@H](CCCNC(=N)N)C(=O)N[C@H](CCCNC(=N)N)C(=O)N[C@@H](CCCNC(=N)N)C(=O)N[C@H](CCCNC(=N)N)C(=O)N[C@@H](CCCNC(=N)N)C(=O)N[C@@H](CCCNC(=N)N)C(=O)N[C@@H](CCCNC(=N)N)C(=O)O)[C@@H](C)CC` [probe 1] (H-MGVADLIKKFESISKEEGGGGK([Ahx-FITC])GG[dR]R[dR]R[dR]RRR-OH), for which the intracellular distribution result in the data set on live BSC-1 cells (15 μM in PBS, 5 to 30 min, confocal fluorescence) is “diffuse localization throughout the cytoplasm”. Further, the “time to enter the live cells efficiently” value with live BSC-1 cells (cell uptake, probe 15 μM in PBS, Trypan blue quench of extracellular fluorescence) is at most 5 min.
